# Counter-ions that a name gives are not always drawn.
# Experiments:
# Type in all cases: in vivo, C. elegans
# [1] = tested on: Pdat-1::GFP+Pdat-1::α-synuclein+Pdat-1:: torsinA (ΔE) worms; assay: α-synuclein toxicity assay, mutant torsinA
# Method in brief: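 C. elegans lines expressing GFP and α-synuclein in dopamine neurons, with wild-type or ΔE torsinA, exposed to compounds; readout is the share of worms keeping all 4 wild-type CEP dopamine neurons as 4-day adults.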
# [2] = tested on: worms containing Punc-54::Q82::GFP+Punc-54::torsinA+Punc54::torsinA (ΔE); assay: Screen for reduction of polyglutamine protein aggregates in worms with wt and mutant torsinA; conditions: differentiated by Q82::GFP lines without torsinA, with wt torsinA or with mutant torsinA
# Experimental: (§1) C elegans nematodes were grown at 20° C. on NGM plates as described by Brenner (Brenner, Genetics, 1974, 77: 71-94). Several transgenic C. elegans lines were used for primary screens of the Prestwick small molecule library. A transgenic worm line expressing Punc-54::Q82-GFP; with both wild type (“wt”) (Punc=54: :torsinA) or mutant (Punc-54::torsinA(ΔE)). Torsin-A expresses a phenotype that results in visible protein aggregation under fluorescent microscope. Transgenic worms were plated on drug plates and progeny were studied for a return to soluble protein.
# (§2) Drugs were administered to C. elegans according to a standard procedure (Rand and Johnson, Methods Cell Biol, 1995, 48: 187-204), by mixing the solubilized drug with the agar medium on which the worms are grown. This mode of administration allows the continuous exposure of worms to the drug.
# Each drug was first dissolved in an appropriate solvent, followed by adding the drug solution into pre-autoclaved media, with the volume of drug solution already taken into account. […] Each plate was seeded with 100 μl concentrated E. coli OP50 bacteria.
# (§3) The screening assays used to identify the compounds use protein aggregation readouts to determine the specificities of molecular action. […]
# (§4) The methods for the aggregate analysis assay are described in Caldwell et al. (Hum Mol Genetics, 2003, 12(3): 307-319). […] MetaMorph Software (Universal Imaging Inc.) was used for pseudocoloration of images, image overlay, and aggregate size quantitation. For each worm line analyzed, average aggregate size was determined by capturing images of all aggregates in the posterior region of 30 L3-staged animals (for Q82::GFP aggregates) or all aggregates in 30 adult animals/day (for Q19::GFP analyses) at 1000× magnification. […]
# (§5) To see the effect of the candidate compounds on suppressing protein misfolding and aggregation, five gravid adult worms were placed onto each drug plate and grown at 20° C. for approximately 3 days. Thirty Fl worms at L3 stage and young adult stage were counted for aggregate number.
# [3] = tested on: protein misfolding and aggregation in transgenic worms; assay: Corrective assay of protein aggregation (drug from L2 stage onward); conditions: drug exposure from L2 stage onward; scored at L3 and young adult
# Experimental: To see the corrective effect of the candidate drug compounds on protein misfolding and aggregation, five gravid adult worms were placed onto a solvent control plate and grown at 20° C. for approximately 3 days. 35-40 Fl worms at L2 stage were picked and transferred to a drug plate. Thirty worms at L3 stage were counted for aggregate number 8 hours later. Thirty young adults were analyzed 32 hours later.
# To calculate the scaled effectiveness of special regimen of drugs on worms based on standardized decrease in protein aggregates. The following formula was used: (A−B)/(A−C)×100%, where
# A=number of aggregates for worms growing on solvent control plates
# B=number of aggregates for worms grown on the specific drug plate for the entire life of the worms
# C=number of aggregates for worms that received exposure from L2 stage (until adulthood)
# If the regimen has no effect, the value would equal 0%. Conversely, if the regimen was as effective as raising the worms on the drug for their entire life, the value would equal 100%.
# [4] = tested on: worms expressing Punc-54::Q82::GFP+Punc-54::torsinA with wt torsinA only; assay: Protein aggregate assay in worms with wt torsinA only
# Experimental: as §1, §2
# Each drug was first dissolved in an appropriate solvent, followed by adding the drug solution into pre-autoclaved media, with the volume of drug solution already taken into account. […]
# as §3, §4, §5
structure (smiles),measurement,setting,value
"C=N[C@@H](C(=O)N[C@@H]1C(=O)N2[C@@H]1SC(C)(C)[C@@H]2C(=O)O)c1ccccc1 [Compound 235, Metampicillin sodium salt]",enhanced DA neuron survival,[1],no significant neuroprotection
same,Specificity in worm assay,[2],wt torsinA
same,corrective effect on protein aggregation,[3],seem to be beneficial
same,reduction of protein aggregation,[4],reduced protein aggregation

# Reference: patent US20070203079A1, “Methods of using small molecule compounds for neuroprotection” (priority 2005, published 2007)
